Source: the supplement of paper PMC10307832

What was measured:
Assay in all cases: relative viability (nuclei count vs DMSO), 5 days (fraction); higher = more cells survive
Sorafenib + Phenformin = compound: CNC(=O)c1cc(Oc2ccc(NC(=O)Nc3ccc(Cl)c(C(F)(F)F)c3)cc2)ccn1 [Sorafenib] + N=C(N)NC(=N)NCCc1ccccc1 [Phenformin] (partner 250 µM)
Method in brief: (§1)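 Values are medians from duplicate plates. Each reflects relative viability, defined as the nuclei count of treated wells over that of vehicle wells. Lung cancer cell lines in 1536-well plates were pin-tool dosed one day after seeding with one drug alone or with a fixed anchor-drug dose plus five library-drug doses (not always all listed) in √10 steps, then fixed, stained and imaged at 4× after 5 days.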

Sorafenib + Dasatinib = compound: CNC(=O)c1cc(Oc2ccc(NC(=O)Nc3ccc(Cl)c(C(F)(F)F)c3)cc2)ccn1 [Sorafenib] + Cc1nc(Nc2ncc(C(=O)Nc3c(C)cccc3Cl)s2)cc(N2CCN(CCO)CC2)n1 [Dasatinib] (partner 0.075 µM)
Method in brief: as §1

Sorafenib + Foretinib = compound: CNC(=O)c1cc(Oc2ccc(NC(=O)Nc3ccc(Cl)c(C(F)(F)F)c3)cc2)ccn1 [Sorafenib] + COc1cc2c(Oc3ccc(NC(=O)C4(C(=O)Nc5ccc(F)cc5)CC4)cc3F)ccnc2cc1OCCCN1CCOCC1 [Foretinib] (partner 0.25 µM)
Method in brief: as §1

Sorafenib + OSI-027 = compound: CNC(=O)c1cc(Oc2ccc(NC(=O)Nc3ccc(Cl)c(C(F)(F)F)c3)cc2)ccn1 [Sorafenib] + COc1cccc2cc(-c3nc([C@H]4CC[C@H](C(=O)O)CC4)n4ncnc(N)c34)[nH]c12 [OSI-027] (partner 0.5 µM)
Method in brief: as §1

Sorafenib + Luminespib = compound: CNC(=O)c1cc(Oc2ccc(NC(=O)Nc3ccc(Cl)c(C(F)(F)F)c3)cc2)ccn1 [Sorafenib] + CCNC(=O)c1noc(-c2cc(C(C)C)c(O)cc2O)c1-c1ccc(CN2CCOCC2)cc1 [Luminespib] (partner 0.01 µM)
Method in brief: as §1

Sorafenib + Tozasertib = compound: CNC(=O)c1cc(Oc2ccc(NC(=O)Nc3ccc(Cl)c(C(F)(F)F)c3)cc2)ccn1 [Sorafenib] + Cc1cc(Nc2cc(N3CCN(C)CC3)nc(Sc3ccc(NC(=O)C4CC4)cc3)n2)n[nH]1 [Tozasertib] (partner 0.1 µM)
Method in brief: as §1

Sorafenib = compound: CNC(=O)c1cc(Oc2ccc(NC(=O)Nc3ccc(Cl)c(C(F)(F)F)c3)cc2)ccn1 [Sorafenib]
Method in brief: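 Lung cancer cell lines were seeded into 1536-well plates, kept overnight at 37 °C and pinned with five library-drug doses (not always all listed) spaced by √10. After 5 days, nuclei were Hoechst-stained, imaged at 4× and counted with MetaXpress. Viability is treated-well nuclei over vehicle-well nuclei, taken as a median across plates. Plates needed control CV below 25% and at least one doubling.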

Sorafenib + AZD7762 = compound: CNC(=O)c1cc(Oc2ccc(NC(=O)Nc3ccc(Cl)c(C(F)(F)F)c3)cc2)ccn1 [Sorafenib] + NC(=O)Nc1cc(-c2cccc(F)c2)sc1C(=O)N[C@H]1CCCNC1 [AZD7762] (partner 0.2 µM)
Method in brief: as §1

Sorafenib + Decitabine = compound: CNC(=O)c1cc(Oc2ccc(NC(=O)Nc3ccc(Cl)c(C(F)(F)F)c3)cc2)ccn1 [Sorafenib] + Nc1ncn([C@H]2C[C@H](O)[C@@H](CO)O2)c(=O)n1 [Decitabine] (partner 2 µM)
Method in brief: as §1

Sorafenib + Palbociclib = compound: CNC(=O)c1cc(Oc2ccc(NC(=O)Nc3ccc(Cl)c(C(F)(F)F)c3)cc2)ccn1 [Sorafenib] + CC(=O)c1c(C)c2cnc(Nc3ccc(N4CCNCC4)cn3)nc2n(C2CCCC2)c1=O [Palbociclib] (partner 0.5 µM)
Method in brief: as §1

Sorafenib + Olaparib = compound: CNC(=O)c1cc(Oc2ccc(NC(=O)Nc3ccc(Cl)c(C(F)(F)F)c3)cc2)ccn1 [Sorafenib] + O=C(c1cc(Cc2n[nH]c(=O)c3ccccc23)ccc1F)N1CCN(C(=O)C2CC2)CC1 [Olaparib] (partner 8 µM)
Method in brief: as §1

Sorafenib + Vorinostat = compound: CNC(=O)c1cc(Oc2ccc(NC(=O)Nc3ccc(Cl)c(C(F)(F)F)c3)cc2)ccn1 [Sorafenib] + O=C(CCCCCCC(=O)Nc1ccccc1)NO [Vorinostat] (partner 1 µM)
Method in brief: as §1

Sorafenib + Pemetrexed = compound: CNC(=O)c1cc(Oc2ccc(NC(=O)Nc3ccc(Cl)c(C(F)(F)F)c3)cc2)ccn1 [Sorafenib] + Nc1nc2[nH]cc(CCc3ccc(C(=O)N[C@@H](CCC(=O)O)C(=O)O)cc3)c2c(=O)[nH]1 [Pemetrexed] (partner 0.2 µM)
Method in brief: as §1

Sorafenib + Trametinib = compound: CNC(=O)c1cc(Oc2ccc(NC(=O)Nc3ccc(Cl)c(C(F)(F)F)c3)cc2)ccn1 [Sorafenib] + CC(=O)Nc1cccc(-n2c(=O)n(C3CC3)c(=O)c3c(Nc4ccc(I)cc4F)n(C)c(=O)c(C)c32)c1 [Trametinib] (partner 0.02 µM)
Method in brief: as §1

NCI-H1623
relative viability (Sorafenib + Phenformin; first compound 0.08 µM): 0.651
relative viability (Sorafenib + Phenformin; first compound 0.253 µM): 0.562
relative viability (Sorafenib + Phenformin; first compound 2.53 µM): 0.66
relative viability (Sorafenib + Phenformin; first compound 8 µM): 0.521
relative viability (Sorafenib + Dasatinib; first compound 0.08 µM): 0.537
relative viability (Sorafenib + Dasatinib; first compound 0.253 µM): 0.552
relative viability (Sorafenib + Dasatinib; first compound 2.53 µM): 0.604
relative viability (Sorafenib + Dasatinib; first compound 8 µM): 0.429
relative viability (Sorafenib + Foretinib; first compound 0.08 µM): 1.06
relative viability (Sorafenib + Foretinib; first compound 0.253 µM): 0.852
relative viability (Sorafenib + Foretinib; first compound 2.53 µM): 0.975
relative viability (Sorafenib + Foretinib; first compound 8 µM): 0.776
relative viability (Sorafenib + OSI-027; first compound 0.08 µM): 0.414
relative viability (Sorafenib + OSI-027; first compound 0.253 µM): 0.411
relative viability (Sorafenib + OSI-027; first compound 2.53 µM): 0.5
relative viability (Sorafenib + OSI-027; first compound 8 µM): 0.37
relative viability (Sorafenib + Luminespib; first compound 0.08 µM): 0.544
relative viability (Sorafenib + Luminespib; first compound 0.253 µM): 0.366
relative viability (Sorafenib + Luminespib; first compound 2.53 µM): 0.611
relative viability (Sorafenib + Luminespib; first compound 8 µM): 0.342
relative viability (Sorafenib + Tozasertib; first compound 0.08 µM): 0.431
relative viability (Sorafenib + Tozasertib; first compound 0.253 µM): 0.397
relative viability (Sorafenib + Tozasertib; first compound 2.53 µM): 0.476
relative viability (Sorafenib + Tozasertib; first compound 8 µM): 0.411
relative viability (Sorafenib; 0.08 µM): 0.977
relative viability (Sorafenib; 0.253 µM): 0.898
relative viability (Sorafenib; 2.53 µM): 1.06
relative viability (Sorafenib; 8 µM): 0.945

NCI-H1648
relative viability (Sorafenib + AZD7762; first compound 0.08 µM): 0.704
relative viability (Sorafenib + AZD7762; first compound 2.53 µM): 0.74
relative viability (Sorafenib + AZD7762; first compound 8 µM): 0.498
relative viability (Sorafenib + Decitabine; first compound 0.08 µM): 0.521
relative viability (Sorafenib + Decitabine; first compound 2.53 µM): 0.682
relative viability (Sorafenib + Decitabine; first compound 8 µM): 0.409
relative viability (Sorafenib + Palbociclib; first compound 0.08 µM): 0.307
relative viability (Sorafenib + Palbociclib; first compound 2.53 µM): 0.249
relative viability (Sorafenib + Palbociclib; first compound 8 µM): 0.231
relative viability (Sorafenib + Olaparib; first compound 0.08 µM): 0.787
relative viability (Sorafenib + Olaparib; first compound 2.53 µM): 0.76
relative viability (Sorafenib + Olaparib; first compound 8 µM): 0.721
relative viability (Sorafenib + OSI-027; first compound 0.08 µM): 0.235
relative viability (Sorafenib + OSI-027; first compound 0.253 µM): 0.264
relative viability (Sorafenib + OSI-027; first compound 2.53 µM): 0.247
relative viability (Sorafenib + OSI-027; first compound 8 µM): 0.247
relative viability (Sorafenib + Vorinostat; first compound 0.08 µM): 0.404
relative viability (Sorafenib + Vorinostat; first compound 2.53 µM): 0.482
relative viability (Sorafenib + Vorinostat; first compound 8 µM): 0.321
relative viability (Sorafenib + Tozasertib; first compound 0.08 µM): 0.566
relative viability (Sorafenib + Tozasertib; first compound 0.253 µM): 0.4
relative viability (Sorafenib + Tozasertib; first compound 2.53 µM): 0.282
relative viability (Sorafenib + Tozasertib; first compound 8 µM): 0.405
relative viability (Sorafenib + Pemetrexed; first compound 0.08 µM): 0.771
relative viability (Sorafenib + Pemetrexed; first compound 2.53 µM): 0.708
relative viability (Sorafenib + Pemetrexed; first compound 8 µM): 0.731
relative viability (Sorafenib + Trametinib; first compound 0.08 µM): 0.468
relative viability (Sorafenib + Trametinib; first compound 2.53 µM): 0.454
relative viability (Sorafenib + Trametinib; first compound 8 µM): 0.258
relative viability (Sorafenib; 0.08 µM): 0.921
relative viability (Sorafenib; 0.253 µM): 0.53
relative viability (Sorafenib; 2.53 µM): 0.925
relative viability (Sorafenib; 8 µM): 0.726
